Data from article PMC7066191, “Exploiting loss of heterozygosity for allele-selective colorectal cancer chemotherapy” (Nature Communications, 2020).

How the values were obtained:
N-acetyltransferase 2 = molecular target: T1, N-acetyltransferase 2 (Homo sapiens, UniProt P11245); assay: recombinant human NAT2 acetylation kinetics, LC-MS/MS of NAPA; assay type: biochemical
T1 construct: gene NAT2

CDK7 = CDK7 (Homo sapiens, UniProt P50613); assay: biochemical; parameters: scanMAX competition binding; kinase recovered on immobilized ligand quantified by qPCR, per cent of control; conditions: read-out: APA (POC)
Sequence of CDK7 (P50613 whole entry): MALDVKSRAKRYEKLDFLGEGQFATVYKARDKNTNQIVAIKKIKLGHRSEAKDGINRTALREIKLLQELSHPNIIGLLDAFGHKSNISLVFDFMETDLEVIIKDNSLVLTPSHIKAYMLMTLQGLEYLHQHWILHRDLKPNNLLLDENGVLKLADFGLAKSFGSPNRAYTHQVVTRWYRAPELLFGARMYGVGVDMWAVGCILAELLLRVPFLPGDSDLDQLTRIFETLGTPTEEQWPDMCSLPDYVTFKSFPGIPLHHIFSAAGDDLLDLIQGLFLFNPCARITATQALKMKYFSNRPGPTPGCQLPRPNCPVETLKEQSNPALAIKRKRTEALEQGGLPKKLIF
Experimental: (§1) The binding affinities of APA and NAPA were evaluated in the scanMAX^sm Kinase Assay Panel (DiscoverX) at a final concentration of 10 µM. The compounds were tested for steric or allosteric binding to kinases in solution. The kinase was captured from the solution through an immobilized kinase-specific ligand and the kinase recovery was quantified. The amount of recovered kinase in the presence or absence of APA or NAPA was measured by quantitative PCR compared with the kinase capture in absence of the compound. Any compound reducing the binding affinity of a kinase to the respective immobilized ligand was scored as a potential hit, and the binding affinity of the compound toward a kinase is interpreted as the difference between the kinase recovery in the absence and presence of the compound. The inhibitory binding constants (Kd) of APA and NAPA to AURKA were evaluated in a KdELECT Kinase Assay (DiscoverX). […] Data acquisition followed the same methodology as for the scanMAX^sm Kinase Assay Panel. 6 Supplementary Figure 4. Kinome inhibition profiles of APA and its NAT2 metabolite NAPA identifies preferential APA kinase targets and differential binding to AURKA a The human kinome was assessed for binding affinity to APA and NAPA at 10 µM concentration (468 kinases in the scanMAX Kinase Assay Panel, DiscoverX). The family stratification of kinases is shown as a cladogram. Circles visualize the binding affinity of NAPA and APA towards each kinase with a higher intensity of blue corresponding to a higher binding affinity. […] One single data point from one experiment at a concentration 18.5 µM of APA was excluded as an outlier. c Thermal shift assay for human recombinant AURKA in the presence of APA and the selective inhibitor S1451. Melting temperatures were obtained by calculating the first derivative of the tryptophan fluorescence ratio at 350 nm and 330 nm and are shown for AURKA in the presence of S1451 (blue) and APA (yellow). Structural similarities between APA and kinase inhibitors[27] prompted investigation of protein kinases as mediators of APA toxicity. […] To enrich for kinase interactions that could explain the preferential killing of slow NAT2 cells, we compared the binding affinity of each kinase with APA and NAPA, selected 44 targets with preferential binding to APA and excluded kinases non-essential for cell survival and those not expressed in CRC cells (Supplementary Fig. 4A, Supplementary Table 4). […] The growth inhibition of RKO and DLD-1 following siRNA-mediated AURKA knockdown (Figs. 3c, d) reflected the relative efficiency of protein downregulation (Supplementary Fig. 5C, D). […] (Supplementary Fig. 4C). AURKA regulates cell cycle progression through association with other centrosome and spindle-associated proteins. Its activation requires auto-phosphorylation at Thr288 and ensures spindle pole integrity, centrosome duplication as well as adequate chromosomal alignment and segregation, while its inhibition leads to multipolar spindles with acentrosomal poles[28],[31]. […] S1451 reduced the fraction of pAURKA levels by >90% regardless of NAT2 expression (Fig. 3f and Su

JAK3_JH1 = molecular target: T2, JAK3_JH1 (Homo sapiens, UniProt P52333); assay: biochemical; parameters: scanMAX competition binding; kinase recovered on immobilized ligand quantified by qPCR, per cent of control; conditions: read-out: APA (POC)
T2 construct: gene JAK3; JH1 domain
Experimental: as §1

AAK1 = AAK1 (Homo sapiens, UniProt Q2M2I8); assay: biochemical; parameters: scanMAX competition binding; kinase recovered on immobilized ligand quantified by qPCR, per cent of control; conditions: read-out: APA (POC)
Experimental: as §1

AURKA = AURKA (Homo sapiens, UniProt O14965); assay: biochemical; parameters: scanMAX competition binding; kinase recovered on immobilized ligand quantified by qPCR, per cent of control; conditions: read-out: APA (POC)
Sequence of AURKA (O14965 whole entry): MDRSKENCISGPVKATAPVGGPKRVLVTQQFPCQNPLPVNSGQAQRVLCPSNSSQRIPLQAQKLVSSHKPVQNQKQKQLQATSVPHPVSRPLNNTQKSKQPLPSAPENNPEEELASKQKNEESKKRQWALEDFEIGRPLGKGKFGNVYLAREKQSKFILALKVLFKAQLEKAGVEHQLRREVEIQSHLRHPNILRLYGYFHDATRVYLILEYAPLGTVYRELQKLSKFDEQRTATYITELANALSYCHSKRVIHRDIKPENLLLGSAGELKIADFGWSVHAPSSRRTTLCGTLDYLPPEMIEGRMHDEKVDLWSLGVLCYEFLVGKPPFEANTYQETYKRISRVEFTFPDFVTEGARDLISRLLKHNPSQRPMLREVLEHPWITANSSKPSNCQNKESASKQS
Experimental: as §1

KDR = KDR (Homo sapiens, UniProt P35968); assay: biochemical; parameters: scanMAX competition binding; kinase recovered on immobilized ligand quantified by qPCR, per cent of control; conditions: read-out: APA (POC)
Experimental: as §1

MAP3K9 = MAP3K9 (Homo sapiens, UniProt P80192); assay: biochemical; parameters: scanMAX competition binding; kinase recovered on immobilized ligand quantified by qPCR, per cent of control; conditions: read-out: APA (POC)
Sequence of MAP3K9 (P80192 whole entry): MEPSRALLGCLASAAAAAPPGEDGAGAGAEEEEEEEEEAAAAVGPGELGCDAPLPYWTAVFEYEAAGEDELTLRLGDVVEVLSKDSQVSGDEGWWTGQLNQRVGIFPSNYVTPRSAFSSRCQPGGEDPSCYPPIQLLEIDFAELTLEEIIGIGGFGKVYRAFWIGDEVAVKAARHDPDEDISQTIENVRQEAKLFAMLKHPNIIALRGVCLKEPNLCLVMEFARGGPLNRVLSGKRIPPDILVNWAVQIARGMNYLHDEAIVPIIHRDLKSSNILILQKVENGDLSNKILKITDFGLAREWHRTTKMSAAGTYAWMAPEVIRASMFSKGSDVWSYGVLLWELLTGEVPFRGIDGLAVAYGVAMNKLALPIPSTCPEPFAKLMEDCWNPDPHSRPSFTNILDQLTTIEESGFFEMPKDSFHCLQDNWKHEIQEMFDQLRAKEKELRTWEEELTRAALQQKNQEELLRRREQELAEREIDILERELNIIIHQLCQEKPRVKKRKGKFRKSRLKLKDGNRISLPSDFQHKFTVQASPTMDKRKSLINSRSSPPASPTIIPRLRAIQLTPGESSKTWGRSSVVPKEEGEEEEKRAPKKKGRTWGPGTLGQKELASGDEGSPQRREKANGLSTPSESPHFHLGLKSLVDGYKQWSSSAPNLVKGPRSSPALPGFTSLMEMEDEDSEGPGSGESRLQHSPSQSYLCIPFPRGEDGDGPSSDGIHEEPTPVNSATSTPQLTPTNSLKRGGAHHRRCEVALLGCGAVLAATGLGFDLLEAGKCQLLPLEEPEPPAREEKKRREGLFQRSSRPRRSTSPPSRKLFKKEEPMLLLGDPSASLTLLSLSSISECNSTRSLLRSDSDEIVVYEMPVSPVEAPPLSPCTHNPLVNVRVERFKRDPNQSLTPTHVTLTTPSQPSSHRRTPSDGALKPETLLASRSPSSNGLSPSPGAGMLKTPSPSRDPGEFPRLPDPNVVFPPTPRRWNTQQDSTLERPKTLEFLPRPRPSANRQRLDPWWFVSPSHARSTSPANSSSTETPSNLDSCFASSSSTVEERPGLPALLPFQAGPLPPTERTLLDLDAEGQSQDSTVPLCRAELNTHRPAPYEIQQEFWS
Experimental: as §1

ABL2 = ABL2 (Homo sapiens, UniProt P42684); assay: biochemical; parameters: scanMAX competition binding; kinase recovered on immobilized ligand quantified by qPCR, per cent of control; conditions: read-out: APA (POC)
Sequence of ABL2 (P42684 whole entry): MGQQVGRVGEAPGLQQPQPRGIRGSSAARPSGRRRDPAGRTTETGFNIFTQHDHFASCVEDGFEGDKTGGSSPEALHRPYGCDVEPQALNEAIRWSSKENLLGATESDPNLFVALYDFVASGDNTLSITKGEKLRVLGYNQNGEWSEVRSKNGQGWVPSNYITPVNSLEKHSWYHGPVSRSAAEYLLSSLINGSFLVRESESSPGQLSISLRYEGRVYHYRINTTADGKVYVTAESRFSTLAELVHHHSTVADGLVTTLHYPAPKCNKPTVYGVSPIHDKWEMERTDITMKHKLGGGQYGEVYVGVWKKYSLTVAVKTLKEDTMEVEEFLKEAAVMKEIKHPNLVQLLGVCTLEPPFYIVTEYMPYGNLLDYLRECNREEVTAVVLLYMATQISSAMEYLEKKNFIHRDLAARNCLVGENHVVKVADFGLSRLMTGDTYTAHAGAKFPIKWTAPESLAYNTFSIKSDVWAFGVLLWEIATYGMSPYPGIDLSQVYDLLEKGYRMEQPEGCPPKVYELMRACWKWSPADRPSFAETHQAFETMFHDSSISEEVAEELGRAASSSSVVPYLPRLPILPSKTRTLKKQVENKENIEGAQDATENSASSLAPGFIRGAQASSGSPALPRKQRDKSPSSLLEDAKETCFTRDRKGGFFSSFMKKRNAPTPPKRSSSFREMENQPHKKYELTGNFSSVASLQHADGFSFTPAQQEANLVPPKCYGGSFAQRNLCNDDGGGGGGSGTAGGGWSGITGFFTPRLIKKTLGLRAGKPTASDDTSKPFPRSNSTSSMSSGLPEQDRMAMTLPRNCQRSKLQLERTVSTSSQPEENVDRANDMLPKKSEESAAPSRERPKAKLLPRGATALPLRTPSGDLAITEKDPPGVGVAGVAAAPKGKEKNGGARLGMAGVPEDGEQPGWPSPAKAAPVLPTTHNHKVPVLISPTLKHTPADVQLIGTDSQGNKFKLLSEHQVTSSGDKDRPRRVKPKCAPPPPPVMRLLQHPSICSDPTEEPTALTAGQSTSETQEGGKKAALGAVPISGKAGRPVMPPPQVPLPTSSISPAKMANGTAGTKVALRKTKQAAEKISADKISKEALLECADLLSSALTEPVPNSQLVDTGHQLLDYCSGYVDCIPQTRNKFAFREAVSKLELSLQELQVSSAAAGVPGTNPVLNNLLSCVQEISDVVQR
Experimental: as §1

GSG2 = molecular target: T3, GSG2 (Homo sapiens, UniProt Q8TF76); assay: biochemical; parameters: scanMAX competition binding; kinase recovered on immobilized ligand quantified by qPCR, per cent of control; conditions: read-out: APA (POC)
T3 construct: gene HASPIN
T3 sequence (Q8TF76 whole entry): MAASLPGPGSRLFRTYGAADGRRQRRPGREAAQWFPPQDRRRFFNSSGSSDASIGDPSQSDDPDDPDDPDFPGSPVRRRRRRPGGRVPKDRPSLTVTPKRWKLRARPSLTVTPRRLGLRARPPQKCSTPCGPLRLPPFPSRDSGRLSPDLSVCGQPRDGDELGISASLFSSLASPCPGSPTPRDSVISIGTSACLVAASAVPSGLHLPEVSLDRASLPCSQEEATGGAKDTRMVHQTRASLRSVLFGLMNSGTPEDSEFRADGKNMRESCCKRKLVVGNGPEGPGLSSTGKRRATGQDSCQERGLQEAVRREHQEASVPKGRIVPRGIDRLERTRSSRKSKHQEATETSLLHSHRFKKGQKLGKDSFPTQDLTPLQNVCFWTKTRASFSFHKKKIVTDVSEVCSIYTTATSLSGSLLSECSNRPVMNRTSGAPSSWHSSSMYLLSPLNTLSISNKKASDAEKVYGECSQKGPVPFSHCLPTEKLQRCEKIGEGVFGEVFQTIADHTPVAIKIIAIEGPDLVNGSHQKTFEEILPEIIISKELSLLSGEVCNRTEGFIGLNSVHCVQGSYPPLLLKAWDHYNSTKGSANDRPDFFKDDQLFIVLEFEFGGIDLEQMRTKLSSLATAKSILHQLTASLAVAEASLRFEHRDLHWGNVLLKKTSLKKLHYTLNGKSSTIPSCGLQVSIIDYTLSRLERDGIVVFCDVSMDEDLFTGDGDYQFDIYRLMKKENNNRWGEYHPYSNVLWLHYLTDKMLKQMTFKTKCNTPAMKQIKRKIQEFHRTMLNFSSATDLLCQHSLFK
Experimental: as §1

RPS6KA1_Dom1 = molecular target: T4, RPS6KA1_Dom1 (Homo sapiens, UniProt Q15418); assay: biochemical; parameters: scanMAX competition binding; kinase recovered on immobilized ligand quantified by qPCR, per cent of control; conditions: read-out: APA (POC)
T4 construct: gene RPS6KA1; Kin.Dom.1 N-terminal
Experimental: as §1

CLK2 = CLK2 (Homo sapiens, UniProt P49760); assay: biochemical; parameters: scanMAX competition binding; kinase recovered on immobilized ligand quantified by qPCR, per cent of control; conditions: read-out: APA (POC)
Sequence of CLK2 (P49760 whole entry): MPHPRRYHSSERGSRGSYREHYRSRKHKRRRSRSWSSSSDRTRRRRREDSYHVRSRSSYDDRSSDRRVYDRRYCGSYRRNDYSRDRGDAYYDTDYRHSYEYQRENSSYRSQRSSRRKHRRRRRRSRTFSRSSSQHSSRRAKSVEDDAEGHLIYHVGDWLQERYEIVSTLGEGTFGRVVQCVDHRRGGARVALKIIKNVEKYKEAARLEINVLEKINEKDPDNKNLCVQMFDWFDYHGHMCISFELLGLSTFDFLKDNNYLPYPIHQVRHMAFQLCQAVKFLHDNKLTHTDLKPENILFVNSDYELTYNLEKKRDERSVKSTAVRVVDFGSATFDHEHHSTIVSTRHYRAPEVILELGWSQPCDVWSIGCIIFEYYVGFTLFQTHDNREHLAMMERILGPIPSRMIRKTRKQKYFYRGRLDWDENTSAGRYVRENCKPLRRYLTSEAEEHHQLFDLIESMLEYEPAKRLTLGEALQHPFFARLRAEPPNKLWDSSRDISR
Experimental: as §1

MKNK2 = MKNK2 (Homo sapiens, UniProt Q9HBH9); assay: biochemical; parameters: scanMAX competition binding; kinase recovered on immobilized ligand quantified by qPCR, per cent of control; conditions: read-out: APA (POC)
Sequence of MKNK2 (Q9HBH9 whole entry): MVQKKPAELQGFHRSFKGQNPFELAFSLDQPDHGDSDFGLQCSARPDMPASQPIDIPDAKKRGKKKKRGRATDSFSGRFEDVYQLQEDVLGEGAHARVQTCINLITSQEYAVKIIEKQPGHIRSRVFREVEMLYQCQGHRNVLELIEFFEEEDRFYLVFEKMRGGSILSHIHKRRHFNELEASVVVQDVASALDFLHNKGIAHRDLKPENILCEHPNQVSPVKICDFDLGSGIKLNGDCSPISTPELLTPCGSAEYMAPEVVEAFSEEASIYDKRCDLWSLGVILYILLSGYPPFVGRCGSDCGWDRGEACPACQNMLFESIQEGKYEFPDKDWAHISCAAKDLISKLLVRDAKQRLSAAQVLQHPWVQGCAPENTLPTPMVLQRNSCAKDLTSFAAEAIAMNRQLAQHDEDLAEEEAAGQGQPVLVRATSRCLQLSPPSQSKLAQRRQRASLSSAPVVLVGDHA
Experimental: as §1

CSNK2A2 = CSNK2A2 (Homo sapiens, UniProt P19784); assay: biochemical; parameters: scanMAX competition binding; kinase recovered on immobilized ligand quantified by qPCR, per cent of control; conditions: read-out: APA (POC)
Experimental: as §1

FLT1 = FLT1 (Homo sapiens, UniProt P17948); assay: biochemical; parameters: scanMAX competition binding; kinase recovered on immobilized ligand quantified by qPCR, per cent of control; conditions: read-out: APA (POC)
Experimental: as §1

RIOK3 = RIOK3 (Homo sapiens, UniProt O14730); assay: biochemical; parameters: scanMAX competition binding; kinase recovered on immobilized ligand quantified by qPCR, per cent of control; conditions: read-out: APA (POC)
Experimental: as §1

Aurora kinase A = molecular target: T5, Aurora kinase A (Homo sapiens, UniProt O14965); assay: KdELECT competition binding (DiscoverX), 11-point; nanoDSF thermal shift
T5 construct: gene AURKA
T5 sequence (O14965 whole entry): as the sequence (O14965 whole entry) above

`COc1cc(Nc2cncc(-c3ccc(N)cc3)n2)cc(OC)c1OC` [APA, 6-(4-aminophenyl)-N-(3,4,5-trimethoxyphenyl)pyrazin-2-amine] was tested, and the “recombinant human NAT2 acetylation kinetics, LC-MS/MS of NAPA” value (N-acetyltransferase 2) was “Recombinant assays with human NAT1 and NAT2 further proved APA acetylation to be specifically mediated by NAT2”, the remaining binding at 10 µM (CDK7) was 49% and the remaining binding at 10 µM (JAK3_JH1) was 19%. For the same compound, the remaining binding at 10 µM (AAK1) was 45%, the remaining binding at 10 µM (AURKA) was 53% and the remaining binding at 10 µM (KDR) was 7.1%. For the same compound, the remaining binding at 10 µM (MAP3K9) was 8.5%, the remaining binding at 10 µM (ABL2) was 14% and the remaining binding at 10 µM (GSG2) was 6.9%. For the same compound, the remaining binding at 10 µM (RPS6KA1_Dom1) was 56%, the remaining binding at 10 µM (CLK2) was 27% and the remaining binding at 10 µM (MKNK2) was 26%. For the same compound, the remaining binding at 10 µM (CSNK2A2) was 29%, the remaining binding at 10 µM (FLT1) was 36% and the remaining binding at 10 µM (RIOK3) was 21%. It also gave a Kd (Aurora kinase A) of 13.5 µM.
